From US5807981A (FibroGen Inc., priority 1995, dated 1998)
Residues, ends and D or L forms follow the SMILES beside them.

Biological target: T1, C-proteinase (Homo sapiens, UniProt P13497)
T1 sequence (P13497 121-986): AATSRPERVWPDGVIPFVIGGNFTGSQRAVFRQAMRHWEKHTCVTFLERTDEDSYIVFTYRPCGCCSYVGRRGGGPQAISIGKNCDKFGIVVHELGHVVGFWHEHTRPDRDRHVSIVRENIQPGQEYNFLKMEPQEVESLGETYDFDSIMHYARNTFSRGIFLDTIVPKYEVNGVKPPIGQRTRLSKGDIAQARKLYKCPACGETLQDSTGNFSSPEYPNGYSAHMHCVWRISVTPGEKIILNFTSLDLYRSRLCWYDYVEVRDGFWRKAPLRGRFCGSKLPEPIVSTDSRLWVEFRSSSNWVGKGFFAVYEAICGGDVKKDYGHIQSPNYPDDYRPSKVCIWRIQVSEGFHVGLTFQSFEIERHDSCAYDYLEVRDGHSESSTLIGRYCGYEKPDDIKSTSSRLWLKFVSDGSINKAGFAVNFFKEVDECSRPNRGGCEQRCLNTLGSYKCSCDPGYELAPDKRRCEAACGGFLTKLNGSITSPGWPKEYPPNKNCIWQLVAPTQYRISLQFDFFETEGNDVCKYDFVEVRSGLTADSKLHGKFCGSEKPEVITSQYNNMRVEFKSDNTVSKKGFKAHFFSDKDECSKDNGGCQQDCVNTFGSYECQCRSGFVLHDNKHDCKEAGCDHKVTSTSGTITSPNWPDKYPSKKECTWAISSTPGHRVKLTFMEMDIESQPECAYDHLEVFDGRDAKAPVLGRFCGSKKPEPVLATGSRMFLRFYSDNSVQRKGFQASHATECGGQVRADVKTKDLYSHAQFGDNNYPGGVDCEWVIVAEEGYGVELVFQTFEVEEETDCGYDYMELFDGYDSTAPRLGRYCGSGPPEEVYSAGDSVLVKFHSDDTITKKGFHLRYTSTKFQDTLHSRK
Test: Cleavage of synthetic procollagen cleavage-site peptides by active C-proteinase
Type: biochemical
Conditions: for Cleavability: Table 1, cleavability of peptides resembling the C-proteinase cleavage site of procollagen; for cleavability by C-proteinase: truncated and extended peptides compared with original peptide SEQ ID NO:6
Source text: A variety of short peptides comprising five (5) to twelve (12) amino acids was synthesized and tested for cleavage by active C-proteinase.
First, four peptides, each comprising eight (8) amino acids corresponding to the cleavage region of several procollagens were synthesized. See, TABLE 1, SEQ ID NO:3, SEQ ID NO:4, SEQ ID NO:5, and SEQ ID NO:6. All four peptides were examined for cleavability by C-proteinase. […] Indeed, one would expect that recognition of the cleavage site depends on structural requirements which cannot be resembled by only eight (8) amino acids.
Second, a series of peptides was prepared based on the sequence of original peptide SEQ ID NO:6. Specifically, peptides were designed resembling the core of the peptide comprising SEQ ID NO:6, but with truncations of one, two and three amino acids from either side of the cleavage site. A further peptide was synthesized resembling two additional amino acids at both the N-terminus and C-terminus of the original peptide comprising SEQ ID NO:6.
Removing two or more amino acids from either end of the original SEQ ID NO:6 sequence, however, yielded a non-cleavable peptide (SEQ ID NOS:9, 10, 12, 13).

| Structure (SMILES) | Cleavability | cleavability by C-proteinase |
| --- | --- | --- |
| CC(=O)N[C@@H](Cc1ccccc1)C(=O)N[C@@H](Cc1ccc(O)cc1)C(=O)N[C@@H](CCCNC(=N)N)C(=O)N[C@@H](C)C(=O)N[C@@H](CC(=O)O)C(=O)N[C@@H](CCC(N)=O)C(=O)N1CCC[C@H]1C(=O)N[C@@H](CCCNC(=N)N)C(N)=O [SEQ ID NO:4, Ac-FYRA-DQPR-NH2] (Ac-FYRADQPR-NH2) | slight | cleaved by C-proteinase |
| CC(=O)N1CCC[C@H]1C(=O)N[C@@H](Cc1ccc(O)cc1)C(=O)N[C@@H](Cc1ccc(O)cc1)C(=O)NCC(=O)N[C@@H](CC(=O)O)C(=O)N[C@@H](CCC(=O)O)C(N)=O [SEQ ID NO:9, Ac-PYYG-DE-NH2] (Ac-PYYGDE-NH2) | none | non-cleavable |
| CSCC[C@H](NC(=O)[C@@H]1CCCN1C(=O)[C@H](CCC(=O)O)NC(=O)[C@H](CC(=O)O)NC(=O)CNC(=O)[C@H](Cc1ccc(O)cc1)NC(=O)[C@H](Cc1ccc(O)cc1)NC(C)=O)C(N)=O [SEQ ID NO:11, Ac-YYG-DEPM-NH2] (Ac-YYGDEPM-NH2) | excellent | did not drastically alter its cleavability |
| CSCC[C@H](NC(=O)[C@H](Cc1ccc(O)cc1)NC(C)=O)C(=O)N[C@@H](CCCNC(=N)N)C(=O)N[C@@H](C)C(=O)N[C@@H](CC(=O)O)C(=O)N[C@@H](CCC(N)=O)C(=O)N[C@@H](C)C(=O)N[C@@H](C)C(N)=O [SEQ ID NO:5, Ac-YMRA-DQAA-NH2] (Ac-YMRADQAA-NH2) | slight | cleaved by C-proteinase |
| CSCC[C@H](NC(=O)[C@@H]1CCCN1C(=O)[C@H](CCC(=O)O)NC(=O)[C@H](CC(=O)O)NC(=O)CNC(=O)[C@H](Cc1ccc(O)cc1)NC(C)=O)C(N)=O [SEQ ID NO:12, Ac-YG-DEPM-NH2] (Ac-YGDEPM-NH2) | none | non-cleavable |
| CSCC[C@H](NC(=O)[C@@H]1CCCN1C(=O)[C@H](CCC(=O)O)NC(=O)[C@H](CC(=O)O)NC(=O)CNC(=O)[C@H](Cc1ccc(O)cc1)NC(=O)[C@H](Cc1ccc(O)cc1)NC(=O)[C@@H]1CCCN1C(=O)[C@H](C)NC(=O)[C@H](Cc1ccccc1)NC(C)=O)C(=O)N[C@@H](CC(=O)O)C(=O)N[C@@H](Cc1ccccc1)C(N)=O [SEQ ID NO:7, Ac-FAPYYG-DEPMDF-NH2] (Ac-FAPYYGDEPMDF-NH2) | excellent | did not impact its cleavability |
| CC(=O)N1CCC[C@H]1C(=O)N[C@@H](Cc1ccc(O)cc1)C(=O)N[C@@H](Cc1ccc(O)cc1)C(=O)NCC(=O)N[C@@H](CC(=O)O)C(N)=O [SEQ ID NO:10, Ac-PYYG-D-NH2] (Ac-PYYGD-NH2) | none | non-cleavable |
| CSCC[C@H](NC(=O)[C@@H]1CCCN1C(=O)[C@H](CCC(=O)O)NC(=O)[C@H](CC(=O)O)NC(=O)CNC(C)=O)C(N)=O [SEQ ID NO:13, Ac-G-DEPM-NH2] (Ac-GDEPM-NH2) | none | non-cleavable |
| CC(=O)N[C@@H](Cc1ccc(O)cc1)C(=O)N[C@@H](Cc1ccc(O)cc1)C(=O)N[C@@H](CCCNC(=N)N)C(=O)N[C@@H](C)C(=O)N[C@@H](CC(=O)O)C(=O)N[C@@H](CC(=O)O)C(=O)N[C@@H](C)C(=O)N[C@@H](CC(N)=O)C(N)=O [SEQ ID NO:3, Ac-YYRA-DDAN-NH2] (Ac-YYRADDAN-NH2) | slight | cleaved by C-proteinase |
| CSCC[C@H](NC(=O)[C@@H]1CCCN1C(=O)[C@H](CCC(=O)O)NC(=O)[C@H](CC(=O)O)NC(=O)CNC(=O)[C@H](Cc1ccc(O)cc1)NC(=O)[C@H](Cc1ccc(O)cc1)NC(=O)[C@@H]1CCCN1C(C)=O)C(N)=O [SEQ ID NO:6, Ac-PYYG-DEPM-NH2] (Ac-PYYGDEPM-NH2) | excellent | cleaved much more efficiently than the three others |
| CC(=O)N1CCC[C@H]1C(=O)N[C@@H](Cc1ccc(O)cc1)C(=O)N[C@@H](Cc1ccc(O)cc1)C(=O)NCC(=O)N[C@@H](CC(=O)O)C(=O)N[C@@H](CCC(=O)O)C(=O)N1CCC[C@H]1C(N)=O [SEQ ID NO:8, Ac-PYYG-DEP-NH2] (Ac-PYYGDEP-NH2) | excellent | did not drastically alter its cleavability |
